Among the data in patent publication US20260070945A1, “MACROCYCLIC IMMUNOMODULATORS” (Bristol-Myers Squibb Company, priority 2022, published 2026) are IC50 values, retold here.

For this experiment, the target named is T1, PD-1/PD-L1 interaction (PE-labeled human PD-L1-Ig binding to Jurkat cell line over-expressing human PD-1) (Homo sapiens, UniProt Q15116).
T1 construct: expressed in transfected cells; host or cells: Jurkat
The experiment is described as follows: Jurkat-PD-1 Cell Binding High-Content Screening Assay (CBA). In outline:
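Compound is added first to the PD-1-expressing Jurkat cells and held 2 h at 37 °C in serum-containing DMEM. The fluorescent PD-L1 fusion follows at 20 nM final for 1 h. Fixed, Hoechst-stained cells are then imaged for bound label.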

[1] abbreviates: Jurkat-hPD-1 cells, PE-labeled PD-L1-Ig 20 nM final; read-out: Jurkat HPD1 PDL1 IC50.

Like-named read-outs stand apart in the source and are kept apart here. *1 amine or outer side, *2 acyl side, *3 side chain or, on linkers, in order; H or OH if unused. Where a SMILES comes first, the peptide text is derived from it. Bridges are numbered along the chain shown (N, C = ends). [ ]: non-standard residue; d: D form. The star is where a group is joined. ξ: configuration not given here. Phe(3-CF3) = N[C@@H](Cc1cccc(C(F)(F)F)c1)C(=O)O; Ala(morpholin-4-yl) = N[C@@H](CN1CCOCC1)C(=O)O; Phe(4-COOH) = N[C@@H](Cc1ccc(C(=O)O)cc1)C(=O)O; Bip = N[C@@H](Cc1ccc(-c2ccccc2)cc1)C(=O)O; Phe(3-Me) = Cc1cccc(C[C@H](N)C(=O)O)c1; γGlu = O=C(O)[C@H](CCC(=O)[*:2])N[*:1]; NH(CH2)12COOH = O=C(O)CCCCCCCCCCCCN*; Val(3-OH) = CC(C)(O)[C@H](N)C(=O)O; Cha = N[C@@H](CC1CCCCC1)C(=O)O; Cit = NC(=O)NCCC[C@H](N)C(=O)O; Ile(3ξ) = CCC(C)[C@H](N)C(=O)O; Thr(3ξ) = CC(O)[C@H](N)C(=O)O; Carboxymethyl = O=C(O)C*; NMeA = CN[C@@H](C)C(=O)O; Aun = NCCCCCCCCCCC(=O)O; Dab = NCC[C@H](N)C(=O)O; Nva = CCC[C@H](N)C(=O)O; AEEA = NCCOCCOCC(=O)O; Sar = CNCC(=O)O

T1 sequence (Q15116 25-288): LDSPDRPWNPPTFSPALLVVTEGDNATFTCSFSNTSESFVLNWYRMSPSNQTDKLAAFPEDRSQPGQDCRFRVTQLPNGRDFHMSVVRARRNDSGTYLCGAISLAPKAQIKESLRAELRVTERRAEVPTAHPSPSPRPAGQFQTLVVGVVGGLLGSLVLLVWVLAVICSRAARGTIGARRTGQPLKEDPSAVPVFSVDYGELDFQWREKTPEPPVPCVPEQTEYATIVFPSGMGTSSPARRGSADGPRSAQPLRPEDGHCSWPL

Consider `CC(C)C[C@H]1NC(=O)[C@H](C)N(C)C(=O)[C@H](CCCNC(N)=O)NC(=O)[C@H](Cc2ccc(-c3ccccc3)cc2)NC(=O)[C@H](Cc2ccc(C(=O)O)cc2)NC(=O)[C@H](Cc2cccc(C(F)(F)F)c2)NC(=O)[C@H](CC(=O)O)NC(=O)[C@H](Cc2ccc(OCC(=O)O)cc2)NC(=O)[C@H](CN2CCOCC2)NC(=O)CSC[C@@H](C(=O)N[C@@H](CCN)C(=O)NCCOCCOCC(=O)N[C@@H](CCC(=O)NCCOCCOCC(=O)NCCCCCCCCCCCCC(=O)O)C(=O)O)NC(=O)[C@H](CO)NC(=O)[C@H](C(C)(C)O)NC(=O)[C@H](CC2CCCCC2)NC(=O)[C@H](CCN)NC1=O` [Example 1177] ({CH2CO}-[Ala(morpholin-4-yl)]Y(Carboxymethyl)D[Phe(3-CF3)][Phe(4-COOH)][Bip][Cit][NMeA][dL][Dab][Cha][Val(3-OH)]SC[Dab][AEEA][γGlu][AEEA]-{NH(CH2)12COOH}; thioether N-14), for which, under setting [1], the 50% inhibitory concentration (IC50) was determined as 27 nM. On to `CCC[C@@H]1NC(=O)[C@H](C(C)(C)O)NC(=O)[C@H](CC2CCCCC2)NC(=O)[C@H](Cc2cnc[nH]2)NC(=O)[C@@H](CC(C)C)NC(=O)[C@H](C)N(C)C(=O)[C@H](C(C)CC)NC(=O)[C@H](Cc2ccc(-c3ccccc3)cc2)NC(=O)[C@H](C(C)C)NC(=O)[C@H](Cc2c[nH]c3ccccc23)NC(=O)[C@H](CC(=O)O)NC(=O)[C@H](Cc2ccc(OCC(=O)O)cc2)NC(=O)[C@H](Cc2ccc(OCC(=O)O)cc2)NC(=O)CSC[C@@H](C(=O)N[C@@H](CCN)C(=O)NCCOCCOCC(=O)NCCCCCCCCCCC(=O)O)NC1=O` (stereo partly drawn) [Example 2589] ({CH2CO}-Y(Carboxymethyl)Y(Carboxymethyl)DWV[Bip][Ile(3ξ)][NMeA][dL]H[Cha][Val(3-OH)][Nva]C[Dab][AEEA][Aun]-OH; thioether N-14), for which the IC50 (PE-labeled PD-L1-Ig 20 nM final, Jurkat-hPD-1 cells; read-out: Jurkat HPD1 PDL1 IC50) stood at 35.6 nM.

Consider `Cc1cccc(C[C@@H]2NC(=O)[C@H](CC(=O)O)NC(=O)[C@H](Cc3ccc(C(=O)O)cc3)NC(=O)[C@H](Cc3ccc(OCC(=O)O)cc3)NC(=O)CSC[C@@H](C(=O)N[C@@H](CCN)C(=O)NCCCCCCCCCCC(=O)O)NC(=O)[C@H](C(C)O)NC(=O)[C@H](C(C)C)NC(=O)[C@H](CC3CCCCC3)NC(=O)[C@H](CCN)NC(=O)[C@@H](CC(C)C)NC(=O)[C@H](C)N(C)C(=O)[C@H](C(C)C)NC(=O)[C@H](Cc3ccc(-c4ccccc4)cc3)NC(=O)[C@H](CC(C)C)NC2=O)c1` (stereo partly drawn) [Example 2323] ({CH2CO}-Y(Carboxymethyl)[Phe(4-COOH)]D[Phe(3-Me)]L[Bip]V[NMeA][dL][Dab][Cha]V[Thr(3ξ)]C[Dab][Aun]-OH; thioether N-14), for which the IC50 under setting [1] was found to be 25.6 nM.

Consider `CCC(C)[C@@H]1NC(=O)[C@H](Cc2ccc(-c3ccccc3)cc2)NC(=O)[C@H](C(C)C)NC(=O)[C@H](Cc2c[nH]c3ccccc23)NC(=O)[C@H](CC(=O)O)NC(=O)[C@H](Cc2ccc(OCC(=O)O)cc2)NC(=O)[C@H](Cc2c[nH]cn2)NC(=O)CSC[C@@H](C(=O)NCCOCCOCC(=O)N[C@@H](CCC(=O)NCCOCCOCC(=O)N[C@@H](CCCCN)C(=O)NCCCCCCCCCCC(=O)O)C(=O)O)NC(=O)[C@H](CO)NC(=O)[C@H](C(C)C)NC(=O)[C@H](CC2CCCCC2)NC(=O)[C@H](CCN)NC(=O)[C@@H](CC(C)C)NC(=O)[C@H](C)N(C)C1=O` (stereo partly drawn) [Example 2032] ({CH2CO}-HY(Carboxymethyl)DWV[Bip][Ile(3ξ)][NMeA][dL][Dab][Cha]VSC[AEEA][γGlu][AEEA]K[Aun]-OH; thioether N-14), for which, under setting [1], the IC50 amounted to 10.4 nM. With `Cc1cccc(C[C@@H]2NC(=O)[C@H](CC(=O)O)NC(=O)[C@H](Cc3ccc(OCC(=O)O)cc3)NC(=O)[C@H](CC(N)=O)NC(=O)CSC[C@@H](C(=O)N(C)CC(=O)NCCCCCCCCCCC(=O)O)NC(=O)[C@H](CCC(=O)O)NC(=O)[C@H](C(C)C)NC(=O)[C@H](CC3CCCCC3)NC(=O)[C@H](CCN)NC(=O)[C@@H](CC(C)C)NC(=O)[C@H](C)N(C)C(=O)[C@H](C(C)C)NC(=O)[C@H](Cc3ccc(-c4ccccc4)cc3)NC(=O)[C@H](Cc3ccc(O)cc3)NC2=O)c1` [Example 2266] ({CH2CO}-NY(Carboxymethyl)D[Phe(3-Me)]Y[Bip]V[NMeA][dL][Dab][Cha]VEC[Sar][Aun]-OH; thioether N-14), the IC50 under setting [1] was found to be 334 nM.

Usually IC50 stands for the concentration needed to halve the response being measured.
